Measured values taken from PMC10661859 (Science signaling, 2023).
Structures can show the parent of a compound that is named as a salt.

Molecular target: T1, His-PtcC (Ptc C-terminal tail) (Drosophila melanogaster, UniProt P18502)
T1 sequence (P18502 1105-1286): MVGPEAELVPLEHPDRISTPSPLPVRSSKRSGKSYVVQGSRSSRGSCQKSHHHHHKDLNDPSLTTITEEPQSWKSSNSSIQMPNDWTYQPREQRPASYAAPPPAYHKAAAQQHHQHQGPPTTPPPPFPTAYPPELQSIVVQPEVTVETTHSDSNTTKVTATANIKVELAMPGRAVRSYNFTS
Assay: solid-phase lipid dot blot
Type: binding
Settings: 2 ul of 50 uM lipid on PVDF; 1 ug/ml protein in PBS; 4 C overnight

Q: For `CCCCCCCCCCCCCCCCCC(=O)OC[C@H](COP(=O)(O)O)OC(=O)CCCCCCCCCCCCCCCCC` [DSPA, 1,2-Distearoyl-sn-glycero-3-phosphate (sodium salt)], which “solid-phase lipid dot blot” value is on record?
A: Its value is “His-PtcC interacted only with DSPA and DPPA, both of which are saturated forms of PA”.
